Experimental data reported in patent publication US8952024B2, “Herbicidal pyrimidone derivatives” (E I du Pont de Nemours and Company, priority 2009, dated 2015).

What was measured:
Assay type in all cases: in vivo
[1] = tested on: barnyardgrass (Echinochloa crus-galli); assay: Test B flooded paddy test; settings: for Plant response rating, Barnyardgrass: Flood (flooded paddy test), 13 to 15 days
Summary of the method: (§1)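 2-leaf seedlings; pots flooded 3 cm over soil at treatment; cpd dosed into floodwater, depth kept constant. Greenhouse 13–15 d. Visual rating vs untreated controls, 0 = no effect, 100 = complete control.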

rice (Oryza sativa) = assay: Test B flooded paddy test; settings: for Plant response rating, Rice: Flood (flooded paddy test), 13 to 15 days
Summary of the method: as §1

[2] = tested on: umbrella sedge (Cyperus difformis); assay: Test B flooded paddy test; settings: for Plant response rating, Sedge, Umbrella: Flood (flooded paddy test), 13 to 15 days
Summary of the method: as §1

[3] = tested on: ducksalad (Heteranthera limosa); assay: Test B flooded paddy test; settings: for Plant response rating, Ducksalad: Flood (flooded paddy test), 13 to 15 days
Summary of the method: as §1

[4] = tested on: barnyardgrass (Echinochloa crus-galli); assay: Test A pre-/postemergence plant response
Summary of the method: (§2)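 Each species was treated preemergence via directed soil spray and postemergence at the one- to two-leaf stage, with compounds formulated in a non-phytotoxic solvent plus surfactant. Visual injury relative to untreated controls was rated after about ten days on a 0–100 scale.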

[5] = tested on: velvetleaf (Abutilon theophrasti); assay: Test A pre-/postemergence plant response
Summary of the method: as §2

[6] = tested on: wheat (Triticum aestivum); assay: Test A pre-/postemergence plant response
Summary of the method: as §2

corn (Zea mays) = assay: Test A pre-/postemergence plant response
Summary of the method: as §2

[7] = tested on: pigweed (Amaranthus retroflexus); assay: Test A pre-/postemergence plant response
Summary of the method: as §2

[8] = tested on: giant foxtail (Setaria faberii); assay: Test A pre-/postemergence plant response
Summary of the method: as §2

[9] = tested on: large crabgrass (Digitaria sanguinalis); assay: Test A pre-/postemergence plant response
Summary of the method: as §2

[10] = tested on: morningglory (Ipomoea spp.); assay: Test A pre-/postemergence plant response
Summary of the method: as §2

[11] = tested on: winter barley (Hordeum vulgare); assay: Test B postemergence plant response; settings: for Plant response rating, Barley: Postemergence
Summary of the method: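 Visual ratings from 0 (no effect) to 100 (complete control), made against controls 13–15 days after treatment, kept in a greenhouse. Compounds were applied postemergence to potted plants at the 1- to 4-leaf stage (2–18 cm).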

[12] = 250 g ai/ha, flooded paddy test, visual rating on 0 to 100 scale (0 no effect, 100 complete control) after 13 to 15 days
[13] = 62 g ai/ha, scale of 0 to 100 where 0 is no effect and 100 is complete control
[14] = 125 g ai/ha, scale 0 to 100, 0 is no effect, 100 is complete control
[15] = Flood, 31 g ai/ha, scale 0 to 100 (0 no effect, 100 complete control)
[16] = Postemergence, 125 g ai/ha, 0 to 100 scale where 0 is no effect and 100 is complete control
[17] = Postemergence, 500 g ai/ha, visual injury, 0 to 100 scale (0 no effect, 100 complete control), approx. ten days
[18] = Preemergence, 125 g ai/ha, 0 to 100 scale, 0 = no effect, 100 = complete control
[19] = Preemergence, 500 g ai/ha, 0 to 100 scale, 0 = no effect, 100 = complete control

For `O=C1CCCC(O)=C1C(=O)c1cnc(-c2ccsc2)n(C2CCOCC2)c1=O` [Compound 186], the “Plant response rating, Flood, Barnyardgrass” value [1, 12] was 30, the “Plant response rating, Barnyardgrass” value [1, 13] was 20 and the “Plant response rating, Barnyardgrass” value [1, 14] was 30. The “Barnyardgrass plant response rating” value [1, 15] was 0, the “Plant response rating, Flood, Rice” value (rice (Oryza sativa); [12]) was 65 and the “Plant response rating, Rice” value (rice (Oryza sativa); [13]) was 20. The “Plant response rating, Rice” value (rice (Oryza sativa); [14]) was 45, the “Rice plant response rating” value (rice (Oryza sativa); [15]) was 10 and the “Plant response rating, Flood, Sedge, Umbrella” value [2, 12] was 90. For the same compound, the “Plant response rating, Sedge, Umbrella” value [2, 13] was 80, the “Plant response rating, Sedge, Umbrella” value [2, 14] was 80 and the “Sedge, Umbrella plant response rating” value [2, 15] was 70. The “Plant response rating, Flood, Ducksalad” value [3, 12] was 100, the “Plant response rating, Ducksalad” value [3, 13] was 90 and the “Plant response rating, Ducksalad” value [3, 14] was 90. The “Ducksalad plant response rating” value [3, 15] was 90, the “Plant response rating, Barnyardgrass” value [4, 16] was 80 and the “Barnyardgrass plant response rating” value [4, 17] was 90. The “Plant response rating, Barnyardgrass” value [4, 18] was 0, the “Plant response rating, Barnyardgrass” value [4, 19] was 60 and the “Plant response rating, Velvetleaf” value [5, 16] was 100. For the same compound, the “Velvetleaf plant response rating” value [5, 17] was 100, the “Plant response rating, Velvetleaf” value [5, 18] was 60 and the “Plant response rating, Velvetleaf” value [5, 19] was 100. For the same compound, the “Plant response rating, Wheat” value [6, 16] was 0, the “Wheat plant response rating” value [6, 17] was 0 and the “Plant response rating, Wheat” value [6, 18] was 0. The “Plant response rating, Wheat” value [6, 19] was 0, the “Plant response rating, Corn” value (corn (Zea mays); [16]) was 0 and the “Corn plant response rating” value (corn (Zea mays); [17]) was 60. For the same compound, the “Plant response rating, Corn” value (corn (Zea mays); [18]) was 0, the “Plant response rating, Corn” value (corn (Zea mays); [19]) was 0 and the “Plant response rating, Pigweed” value [7, 16] was 100. The “Pigweed plant response rating” value [7, 17] was 100, the “Plant response rating, Pigweed” value [7, 18] was 50 and the “Plant response rating, Pigweed” value [7, 19] was 100. The “Plant response rating, Foxtail, Giant” value [8, 16] was 80, the “Foxtail, Giant plant response rating” value [8, 17] was 90 and the “Plant response rating, Foxtail, Giant” value [8, 18] was 20. The “Plant response rating, Foxtail, Giant” value [8, 19] was 60, the “Plant response rating, Crabgrass, Large” value [9, 16] was 90 and the “Crabgrass, Large plant response rating” value [9, 17] was 90. For the same compound, the “Plant response rating, Crabgrass, Large” value [9, 18] was 30, the “Plant response rating, Crabgrass, Large” value [9, 19] was 80 and the “Plant response rating, Morningglory” value [10, 16] was 100. The “Morningglory plant response rating” value [10, 17] was 100, the “Plant response rating, Morningglory” value [10, 18] was 20 and the “Plant response rating, Morningglory” value [10, 19] was 90. For the same compound, the “Barley plant response rating (0 to 100 scale)” value ([11]; 62 g ai/ha, postemergence, 0 is no effect, 100 is complete control, 13 to 15 days) was 5, the “Plant response rating, Barley” value ([11]; 31 g ai/ha, 0 to 100 scale (0 no effect, 100 complete control)) was 0 and the “Plant response rating, Barley” value ([11]; 125 g ai/ha, scale 0 to 100 (0 no effect, 100 complete control)) was 5. The “Plant response rating, Barley” value ([11]; 250 g ai/ha, scale 0 to 100 (0 no effect, 100 complete control), 13 to 15 days) was 5.
